Results: patent publication US6514686B2, “Method and composition for modulating amyloidosis” (The University of British Columbia, priority 1997, dated 2003)

How the values were obtained:
Format in all cases: cell-based
[1] = tested on: APPs secretion in wild-type PC12 cells; assay: APPs secretion from wild-type PC12 cells, fifteen minute exposure
Excerpt: Phorbol 12-myristate 13-acetate (PMA) was purchased from LC Service Corp., Woburn, Mass. All other materials were obtained as previously described in Example 1. Wild-type PC12 cells were purchased from the American Type Tissue Culture Collection # CRL-1721 and grown in DMEM with 5% FBS fetal bovine serum and 10% horse serum (GIBCO).
PC12 cells grown to confluence were pretreated for twelve hours in DMEM supplemented with charcoal-stripped calf serum (SIGMA) as described above. After pretreatment, cells were trypsinized, resuspended, and counted as described above. 10 mls each of 1.0×10^6 cells/ml PC12 cells were aliquoted into 15 ml conical tubes containing the appropriate treatment group. PMA was used as a positive control as previous experiments had shown that such treatment increases APPs release (Buxbaum, J. D. et al., “Processing of Alzheimer β/A4 amyloid precursor protein: Modulation by agents that regulate protein phosphorylation”, Proc. Natl. Acad. Sci. USA 87:6003-6006 (1990); Caporaso, G. L. et al., “Protein phosphorylation regulates secretion of Alzheimer β/A4 amyloid precursor protein”, Proc. Natl. Acad. Sci. USA 89:3055-3059 (1992); Mills, J. and P. B. Reiner, “Phorbol esters but not the cholinergic agonists oxotremorine-M and carbachol increase release of the amyloid precursor protein in cultured rat cortical neurons”, J. Neurochem. 67:1511-1518 (1996), the teachings of which are hereby incorporated by reference). The final percentage of DMSO in all treatment groups was normalized to 0.01% (v/v).
Treatment groups were as follows: a) Control; b) PMA (0.1 μM); c) RU-486 (0.1 μM). The concentration of (0.1 μM) RU-486 was chosen because it was near the EC50 mark (FIG. 4). 1.0 ml of each treatment group was pipetted into 1.5 eppendorf tubes and incubated at 37° C. in a […] incubator for fifteen minutes. Harvesting and concentration of APPs were performed as described in Example 1. Protein band separation on SDS-PAGE, visualization of bands, and quantification of APPs were also performed as previously described.
Materials and methods utilized were as outlined above. […]

[2] = tested on: APPs secretion in KB-3.1 human carcinoma cell line; assay: APPs secretion from KB-3.1 cells with sub-detectable p-glycoprotein
Description: These cells were grown in DMEM with 10% FBS. All materials and methods are as outlined as above.

[3] = tested on: APPs secretion in KB-3.1 cells transfected with human MDR1 (p-glycoprotein); assay: APPs secretion from KB-3.1 cells transiently transfected with pHaMDR1; conditions: 0.1 μM, fifteen minutes, plated cells, transfection efficiency ~10-20%; FIG. 10
Description: KB-3.1 cells were grown as described above. The pHaMDR1 plasmid construct encoding human MDR1 was obtained as a gift from Dr. Ira Pastan (National Cancer Institute).
For calcium-phosphate transfections, cells were plated onto 10 cm polypropylene petri dishes (Falcon) at a density of 2.0×10^6 cells/dish. To prepare the cDNA for transfection, 15 μg/plate of pHaMDR1 cDNA was mixed together with 1/10 volumes of 3 M sodium Acetate, ˜3× volume of 100% ethanol in a 1.5 ml eppendorf tube and spun in a desktop centrifuge for thirty seconds. The tube was then filled to the top with ethanol and spun at 15,000 rpm at 4° C. for ten minutes. The ethanol was aspirated, leaving a tiny pellet of cDNA on the bottom. In a sterile fumehood, the cDNA was resuspended with 450 μl of 0.1× tris-EDTA(TE) ethylene diamine tetraacetic acid, tris EDTA and 50 μl of 2.5 M CaCl2. 500 μL of 2× BES (50 mM N, N-bis[2 Hydroxyethyl]2-aminoethanesu acid, 280 mM NaCl, 1.5 mM Na2HPO4.2 H2O, pH 6.96) was added to make a final volume of 1.0 ml. The entire mixture was allowed to sit for twenty minutes before adding the contents to the plate of cells. […]
Exposures were performed without resuspending the cells, in contrast to previous experiments described above. […] 5 μl from each sample was collected for protein quantification. Protein determination and APPs quantification were performed as previously described.

[4] = tested on: APPs secretion in GSrasDN1 PC12 cells; assay: APPs secretion from GSrasDN1 PC12 cells (22C11 western blot, densitometry)
Excerpt: The GSrasDN1 PC12 subline (Dr. Simon Halegous (State University of New York at Stony Brook)) expressing the dominant inhibitory mutant ras gene, p21^N17 under the control of a dexamethasone-inducible MMTV promoter (mouse mammary tumor virus), obtained as a gift from Dr. Simon Halegoua, (Kremer et al., J. Cell Biol. 115(3):809-819 (1991)) and grown in Dulbecco's modified Eagles' medium (DMEM, GIBCO) containing 5% fetal bovine serum (FBS: v/v) and 10% heat inactivated horse serum (HS, GIBCO).
RU-486 and NGF were solubilized in dimethylsulfoxide (DMSO). DMSO was used as a control vehicle in all experiments.
For drug exposure experiments in GSrasDN1 PC12 cells, cells were grown to confluence in 75 cm^2 polypropylene culture flasks from Falcon. Twelve hours prior to drug treatment, the culture medium was aspirated using a pasteur pipette and replaced with 10 ml of DMEM supplemented with 15% charcoal-stripped calf serum (SIGMA) to remove complement, immunoglobulins and endogenous steroid hormones secreted from the cells. Twelve hours later, this supplemental medium was aspirated and replaced with 10 ml of DMEM containing the treatment drugs. Flasks were allotted into the following treatment groups: a) Control and b) RU-486 (3.0 μM). DMSO concentrations were normalized to 0.06% (v/v) in all flasks.
Twelve hours following drug exposure, the medium was again aspirated and the cells were washed once with 10 ml of phosphate-buffered saline (PBS, SIGMA). Cells were removed from the bottom of the flask by incubating with 1.0 ml of trypsin (GIBCO) for five minutes. […]
After the fifteen minutes had elapsed, the tubes were placed immediately on ice to stop any reactions and 200 μl of a protease cocktail (100 μM PMSF (phenylmethanesulfonyl fluoride), 5 μg/ml Leupeptin, 5 μg/ml Aprotinin, and 5)μg/ml Pepstatin) was added to each tube. […] The nuclear fraction was pelletted down at 14,000 rpm for ten min. and 5 μl of cellular homogenate was collected for a protein quantification. […]

[5] = RU-486, dexamethasone 0.1 μM, progesterone, desmethoxyverapamil 1 μM, FIG. 7, 8

CCCCCCCCCCCCCC(=O)O[C@@H]1[C@@H](C)[C@@]2(O)[C@@H](C=C(CO)C[C@]3(O)C(=O)C(C)=C[C@@H]23)[C@@H]2C(C)(C)[C@]12OC(C)=O [PMA, Phorbol 12-myristate 13-acetate]
effect on APPs secretion ([1]; 0.1 μM, no drug pretreatment, FIG. 5): increase
modulation of APPs secretion ([2]; cells in suspension, FIG. 9): do not regulate
regulation of APPs secretion ([2]; non-transfected cells exposed while plated, 0.1 μM, fifteen minutes): no regulation
regulation of APPs secretion [3]: restored regulation

CC#C[C@]1(O)CC[C@H]2[C@@H]3CCC4=CC(=O)CCC4=C3[C@@H](c3ccc(N(C)C)cc3)C[C@@]21C [RU-486, 17β-hydroxy-11β-[4-dimethylaminophenyl]-17α prop-l-ynyl estra-4,9-dien-3 one]
increase in APPs secretion over NGF ([4]; RU-486 3.0 μM versus NGF 50 ng/ml, FIG. 2): ~6 fold
increase in APPs secretion over control samples ([4]; RU-486 3.0 μM, twelve hours exposure, APPs collected fifteen minutes, FIG. 2): ~12.5 fold
increased APPs secretion ([4]; at 3.0 μM RU-486, sub-maximal concentration, FIG. 4): ~21 fold

COc1cccc(CCN(C)CCCC(C#N)(c2ccc(OC)c(OC)c2)C(C)C)c1 (stereo not drawn) [desmethoxyverapamil]
effect on APPs secretion [1, 5]: significantly increased

CC(=O)[C@H]1CC[C@H]2[C@@H]3CCC4=CC(=O)CC[C@]4(C)[C@H]3CC[C@]12C [progesterone, Progesterone]
effect on APPs secretion [1, 5]: significantly increased
